Legend:
[1] = 101.33 kPa, Liquid; for thermal conductivity: Parallel plate method; for mass density: Vibrating tube method
[2] = refractive index (Na D-line) (dimensionless); conditions: 101.33 kPa, Liquid, Standard Abbe refractometry

CCn1cc[n+](C)c1.N#C[C-](C#N)C#N [1-ethyl-3-methyl-1H-imidazolium tricyanomethanide]
Conditions	mass density, [1] [kg/m3]	refractive index, [2]	thermal conductivity, [1] [W/m/K]
283.15 K	1091.96	1.516	0.1966
288.15 K	1088.37	–	–
293.15 K	1084.8	1.5131	0.1958
298.15 K	1081.25	–	–
303.15 K	1077.71	1.5101	0.1955
308.15 K	1074.19	–	–
313.15 K	1070.69	1.5071	0.1928
318.15 K	1067.21	–	–
323.15 K	1063.74	–	0.1917
328.15 K	1060.29	–	–
333.15 K	1056.86	–	0.1896
338.15 K	1053.44	–	–
343.15 K	1050.04	–	0.1883
348.15 K	1046.66	–	–
353.15 K	1043.28	–	0.1874
358.15 K	1039.93	–	–
363.15 K	1036.58	–	–

CCCCn1cc[n+](C)c1.N#C[B-](C#N)(C#N)C#N [1-butyl-3-methyl-1H-imidazolium tetracyanoborate]
Conditions	mass density, [1] [kg/m3]	refractive index, [2]	thermal conductivity, [1] [W/m/K]
283.15 K	1021.17	1.4561	0.178
288.15 K	1017.37	–	–
293.15 K	1013.59	1.4533	0.1791
298.15 K	1009.83	–	–
303.15 K	1006.09	1.45	0.1756
308.15 K	1002.37	–	–
313.15 K	998.67	1.4473	0.1737
318.15 K	995	–	–
323.15 K	991.34	–	0.1732
328.15 K	987.71	–	–
333.15 K	984.09	–	0.1693
338.15 K	980.5	–	–
343.15 K	976.92	–	0.1664
348.15 K	973.37	–	–
353.15 K	969.82	–	0.1632
358.15 K	966.3	–	–
363.15 K	962.8	–	–

CCCCCC[n+]1ccn(C)c1.N#C[C-](C#N)C#N [3-hexyl-1-methylimidazolium tricyanomethanide]
Conditions	mass density, [1] [kg/m3]	refractive index, [2]	thermal conductivity, [1] [W/m/K]
283.15 K	1030.55	1.5084	0.1817
288.15 K	1027.22	–	–
293.15 K	1023.92	1.5055	0.1815
298.15 K	1020.62	–	–
303.15 K	1017.35	1.5026	0.1831
308.15 K	1014.08	–	–
313.15 K	1010.83	1.4994	0.1817
318.15 K	1007.58	–	–
323.15 K	1004.35	–	0.181
328.15 K	1001.14	–	–
333.15 K	997.93	–	0.1792
338.15 K	994.74	–	–
343.15 K	991.57	–	0.1774
348.15 K	988.4	–	–
353.15 K	985.24	–	0.1762
358.15 K	982.11	–	–
363.15 K	978.98	–	–

CCCCCCCCn1cc[n+](C)c1.N#C[B-](C#N)(C#N)C#N [1-methyl-3-octylimidazolium tetracyanoborate]
Conditions	mass density, [1] [kg/m3]	refractive index, [2]	thermal conductivity, [1] [W/m/K]
283.15 K	985.65	1.4603	0.1703
288.15 K	982.14	–	–
293.15 K	978.62	1.457	0.1694
298.15 K	975.1	–	–
303.15 K	971.6	1.4541	0.1682
308.15 K	968.12	–	–
313.15 K	964.65	1.4509	0.1644
318.15 K	961.2	–	–
323.15 K	957.76	–	0.1586
328.15 K	954.34	–	–
333.15 K	950.94	–	0.1573
338.15 K	947.55	–	–
343.15 K	944.17	–	0.1543
348.15 K	940.82	–	–
353.15 K	937.45	–	0.1513
358.15 K	934.15	–	–
363.15 K	930.84	–	–

CCCCCCCCCC[n+]1ccn(C)c1.N#C[C-](C#N)C#N [3-decyl-1-methylimidazolium tricyanomethanide]
Conditions	mass density, [1] [kg/m3]	refractive index, [2]	thermal conductivity, [1] [W/m/K]
283.15 K	992.5	1.5008	0.168
288.15 K	989.38	–	–
293.15 K	986.25	1.4981	0.1694
298.15 K	983.11	–	–
303.15 K	979.98	1.495	0.1674
308.15 K	976.85	–	–
313.15 K	973.73	1.4918	0.1676
318.15 K	970.63	–	–
323.15 K	967.53	–	0.1673
328.15 K	964.44	–	–
333.15 K	961.37	–	0.1646
338.15 K	958.31	–	–
343.15 K	955.24	–	0.162
348.15 K	952.2	–	–
353.15 K	949.17	–	0.1593
358.15 K	946.15	–	–
363.15 K	943.13	–	–

CCCCCCCCn1cc[n+](C)c1.N#CC(=C=[N-])C#N [1-methyl-3-octylimidazolium tricyanomethanide]
Conditions	mass density, [1] [kg/m3]	refractive index, [2]	thermal conductivity, [1] [W/m/K]
283.15 K	1010.18	1.5048	0.1717
288.15 K	1006.97	–	–
293.15 K	1003.75	1.5021	0.1689
298.15 K	1000.54	–	–
303.15 K	997.34	1.4993	0.1675
308.15 K	994.15	–	–
313.15 K	990.97	1.4964	0.1685
318.15 K	987.8	–	–
323.15 K	984.65	–	0.1678
328.15 K	981.5	–	–
333.15 K	978.37	–	0.1655
338.15 K	975.25	–	–
343.15 K	972.14	–	0.1642
348.15 K	969.05	–	–
353.15 K	965.97	–	0.1639
358.15 K	962.89	–	–
363.15 K	959.82	–	–

CCCCCCCCCCn1cc[n+](C)c1.N#C[B-](C#N)(C#N)C#N [1-decyl-3-methyl-1H-imidazolium tetracyanoborate]
Conditions	mass density, [1] [kg/m3]	refractive index, [2]	thermal conductivity, [1] [W/m/K]
283.15 K	972.81	1.4612	0.1665
288.15 K	969.36	–	–
293.15 K	965.94	1.4584	0.1673
298.15 K	962.51	–	–
303.15 K	959.09	1.4552	0.1667
308.15 K	955.68	–	–
313.15 K	952.29	1.4522	0.1646
318.15 K	948.91	–	–
323.15 K	945.54	–	0.164
328.15 K	942.19	–	–
333.15 K	938.85	–	0.1613
338.15 K	935.53	–	–
343.15 K	932.22	–	0.16
348.15 K	928.94	–	–
353.15 K	925.65	–	0.1586
358.15 K	922.39	–	–
363.15 K	919.14	–	–

CCCCCCn1cc[n+](C)c1.N#C[B-](C#N)(C#N)C#N [1-hexyl-3-methylimidazolium tetracyanoborate]
[1]
Conditions	thermal conductivity [W/m/K]
283.15 K	0.1762
293.15 K	0.1752
303.15 K	0.1741
313.15 K	0.1714
323.15 K	0.1722
333.15 K	0.1697
343.15 K	0.1677
353.15 K	0.1656

Source: the NIST ThermoML archive (doi:10.1007/s10765-014-1617-1)
